From US12202790B2, “Sulfonamide derivatives having selective Nox inhibiting activity” (GLUCOX BIOTECH AB, priority 2018, dated 2025) come the findings set out here.

In one experiment the target is hNox4 (Homo sapiens (Human), UniProt Q9NPH5). Description: Amplex Red assay of intact Nox4 expressing HEK293 cells. The format is cell-based. The note with it: read-out: IC50 Nox4. How it is done: (§1) HEK293 overexpressing Nox4 (CJ Nox4) cells were purchased from Redoxis, Lund, Sweden. HEK 293 cells expressing Nox5, Nox3 (HEK TRex) and CHO cells expressing Nox1, were a kind gift from Vincent Jaque Center Medical Universitaire, Geneva, Switzerland. Nox2 expressed in isolated neutrophils were isolated from whole blood (human), as previously described (Anvari E, et al., Free Radic Res 2015; 49:1308-1318).
HEK293 cells (CJ Nox4) were cultured in RPMI 1640 with Glutamax supplemented with FBS (10%), penicillin (100 U/ml) and streptomycin […] at 37° C. in air with 5% CO2. Every third passage 200 µg/ml neomycin were supplied in growth medium as selective agent.
(§2) Reactive oxygen produced in whole cells or in membrane preparation of Nox1, Nox3, Nox4, Nox5 and xanthine oxidase and glucose oxidase were determined using Amplex Red as detection probe of formed H2O2. Amplex Red (10-acetyl-3,7-dihydroxyphenoxazine) in combination with HRP and co-factors reacts with H2O2 in a 1:1 stoichiometry to form a highly fluorescent resorufin excitated at 544 nm producing emission at 590 nm.
(§3) Adherent cells (CHO, HEK) were collected by trypsinization, centrifuged, washed with HBSS, counted, and resuspended in HBSS. Cells were seeded in 96-well black flat bottom plates at a density of 50,000-100,000 cells/well. All compounds were dissolved in DMSO and concentrations ranging from 0.003 to 200 μM were tested in Nox cellular assays with a final concentration of DMSO of 1%. Cells were incubated at 37° C. with the compounds for 30 minutes before measurement. Cells expressing Nox1 and Nox2 were activated with the PKC activator PMA (0.1 μM). Nox5 was activated with the Ca2+ ionophore ionomycin (1 μM) and further enforced with PMA. The CJ HEK 293 cells overexpressed Nox4 constitutively. In the HTS screen HEK 293 TRex was used and tetracycline ([…]) was added 18 h before measurement to induce Nox4 expression. Production of hydrogen peroxide by Nox in intact cells was measured using Amplex Red fluorescence as described by Jaquet V, et al., Br J Pharmacol 2011; 164:507-520. Assay reagents including HRP ([…]) and Amplex Red (50 μM) were added to initiate production of hydrogen peroxide. Fluorescence was read in a fluorescence plate reader at 37° C. every minute between 30-60 minutes.

In another experiment the target is Nox1 (Homo sapiens (Human), UniProt Q9Y5S8). Put plainly: Amplex Red assay of Nox1 expressing CHO cells. It is filed as cell-based. The arrangement: key to IC50 Nox1: The sign “—” stands for “inactive”. How it is done: as §1
CHO cells expressing Nox1 were cultured in DMEM 12 medium (DMEM/F12) supplemented with FBS (10%), penicillin (100 U/ml) and streptomycin (100 μg/ml) at 37° C. in air with 5% CO2.
as §2, §3

The target of a further experiment is Nox2 (Homo sapiens (Human), UniProt P04839). Description: Nox2 inhibition in human neutrophils, isoluminol-dependent chemiluminescence. It is filed as cell-based. The arrangement: key to IC50 Nox2: The sign “—” stands for “inactive”. The note with it: PMA stimulated human neutrophils. Here is the method: as §1
Compounds of the invention were tested for selectivity against Nox2 in isolated neutrophils from whole blood (human), as previously described (Anvari E, et al., vide supra). Levels of ROS from PMA stimulated primary human neutrophils were measured using isoluminol-dependent chemiluminescence. […] The dye is excited by ROS and the light emitted when the excited molecules return to the ground state, relative to the amount of released ROS, is measured. This reaction is catalyzed and amplified by peroxidases. […] Compounds of the invention and GKT136901 were diluted at 4× working concentration and titrated from 100 μM to 0.006 μM in 1:4 steps as final concentrations. DPI was diluted in isoluminol buffer at 4× working concentration titrated from 10 μM to 0.0006 μM as final concentrations. PMA was diluted in isoluminol buffer at 4× working concentration for a final concentration of 30 ng/ml. […] Luminescence was detected using FluoStar Optima (BMG, Labtech). The isoluminol buffer was prepared immediately prior to addition to test plate. The buffer contained HRP fraction with or without PMA (30 ng/ml). Stock solutions at 6 μg/ml (PMA in HBSS), 3 μg/ml (PMA in DMSO) and 24 mM (DPI) were used and further diluted at the day of analysis to 4× working concentrations in HBSS with or without DMSO.

The next experiment has as its target Nox5 (Homo sapiens (Human), UniProt Q96PH1). Description: Amplex Red assay of Nox5 expressing HEK cells. The format is cell-based. Further details: key: The sign “—” stands for “inactive”.
Description: as §1
HEK293T cells expressing tetracycline-inducible human (Nox3 or Nox4) and HEK293 cells stably expressing human Nox5 were generated as described previously (Serrander et al., 2007a,b). HEK cells were cultured in Dulbecco's modified Eagle medium (DMEM) with 4.5 g/l glucose, supplemented with FBS (10%), penicillin (100 U/ml) and streptomycin […] at 37° C. in air with 5% CO2.
as §2, §3

A further experiment concerns the target xanthine oxidase (Bos taurus (Bovine), UniProt P80457). Put plainly: Amplex Red xanthine oxidase (XO) assay. The arrangement: key: The sign “—” stands for “inactive”. It is filed as biochemical. How it is done: as §2
The assay was designed for Amplex Red analysis of production of hydrogen peroxide. Test compounds were incubated with 5 mU/ml bovine derived xanthine oxidase for 15 min at room temperature followed by the addition of substrate and detection mix (final concentrations of 0.2 U/ml HRP, 5 μM hypoxanthine, and 50 μM Amplex Red). As described by Hirano K et al., Antioxid Redox Signal 2015 10; 23:358-374, production of hydrogen peroxide was followed by fluorescence detection during 30 min at 37° C. in a plate reader that use excitation at 544 nm producing emission at 590 nm.

The nature of the next experiment: DPPH redox assay. The note with it: redox activity control. Further details: key: The sign “—” stands for “inactive”. Here is the method: DPPH, a well-known sensitive chemical of monitoring reactions involving radicals described by Xiong Q, et al., Biol Pharm Bull 1996; 19:1580-1585, was used as control to exclude any redox active compound. DPPH was incubated with decreasing concentrations (200-0.003 μM) of compounds of the invention or prior art compound GKT136901 (as a positive control). The plate was kept in the dark for 60 min, after which the absorbance of the solution was measured at 518 nm.
(In general: The DPPH test is a chemical assay of radical scavenging.)

Another experiment deals with Human islet cells. Put plainly: Effects on human islet cell viability. It is filed as cell-based. The note with it: 48 h, inhibitor 2 μM; for human islet cell death with cytokines: IL-1β (20 ng/ml)+IFN-γ (20 ng/ml); for human islet cell death with high glucose+palmitate: palmitate (1.5 mM)+high glucose (20 mM). Here is the method: Human islet cells were incubated at control condition, with the cytokines IL-1β (20 ng/ml)+IFN-γ (20 ng/ml), or with palmitate (1.5 mM+2% BSA)+high glucose (20 mM) (PH) for 2 days with or without Nox1 inhibitor ML-171 (2 μM), Nox2 inhibitor Phos-I2 (2 μM) or Example 17 (1 μM). Islets were photographed in an inverted fluorescence microscope and the intensities of red (PI) and blue (Bisbenzimide) signals were quantified using Image J software. Results are indicated as mean±S.E.M for 7 human islet donors.

hNox4, sequence (Q9NPH5 whole entry): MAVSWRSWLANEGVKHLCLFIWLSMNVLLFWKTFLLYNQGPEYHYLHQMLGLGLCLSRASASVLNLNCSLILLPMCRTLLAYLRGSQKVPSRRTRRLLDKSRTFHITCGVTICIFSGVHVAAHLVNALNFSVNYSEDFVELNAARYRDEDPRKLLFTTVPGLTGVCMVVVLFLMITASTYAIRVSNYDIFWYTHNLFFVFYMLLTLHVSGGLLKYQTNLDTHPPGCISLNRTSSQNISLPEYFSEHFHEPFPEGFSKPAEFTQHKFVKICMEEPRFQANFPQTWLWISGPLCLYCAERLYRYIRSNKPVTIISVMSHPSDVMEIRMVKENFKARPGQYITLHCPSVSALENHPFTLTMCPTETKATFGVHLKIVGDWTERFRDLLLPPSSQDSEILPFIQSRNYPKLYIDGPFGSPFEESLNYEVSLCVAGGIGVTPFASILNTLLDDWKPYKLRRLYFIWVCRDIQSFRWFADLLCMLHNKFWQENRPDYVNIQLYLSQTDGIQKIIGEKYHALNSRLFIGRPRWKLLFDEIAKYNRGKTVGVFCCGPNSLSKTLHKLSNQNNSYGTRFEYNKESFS
hNox4, sequence (P13498 2-195 partner): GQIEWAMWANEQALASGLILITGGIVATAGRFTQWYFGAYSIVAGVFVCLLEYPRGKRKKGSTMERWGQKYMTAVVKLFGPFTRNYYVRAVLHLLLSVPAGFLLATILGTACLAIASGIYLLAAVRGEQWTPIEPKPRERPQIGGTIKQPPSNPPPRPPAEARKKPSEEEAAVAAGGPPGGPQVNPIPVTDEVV
Nox5, sequence (Q96PH1 whole entry): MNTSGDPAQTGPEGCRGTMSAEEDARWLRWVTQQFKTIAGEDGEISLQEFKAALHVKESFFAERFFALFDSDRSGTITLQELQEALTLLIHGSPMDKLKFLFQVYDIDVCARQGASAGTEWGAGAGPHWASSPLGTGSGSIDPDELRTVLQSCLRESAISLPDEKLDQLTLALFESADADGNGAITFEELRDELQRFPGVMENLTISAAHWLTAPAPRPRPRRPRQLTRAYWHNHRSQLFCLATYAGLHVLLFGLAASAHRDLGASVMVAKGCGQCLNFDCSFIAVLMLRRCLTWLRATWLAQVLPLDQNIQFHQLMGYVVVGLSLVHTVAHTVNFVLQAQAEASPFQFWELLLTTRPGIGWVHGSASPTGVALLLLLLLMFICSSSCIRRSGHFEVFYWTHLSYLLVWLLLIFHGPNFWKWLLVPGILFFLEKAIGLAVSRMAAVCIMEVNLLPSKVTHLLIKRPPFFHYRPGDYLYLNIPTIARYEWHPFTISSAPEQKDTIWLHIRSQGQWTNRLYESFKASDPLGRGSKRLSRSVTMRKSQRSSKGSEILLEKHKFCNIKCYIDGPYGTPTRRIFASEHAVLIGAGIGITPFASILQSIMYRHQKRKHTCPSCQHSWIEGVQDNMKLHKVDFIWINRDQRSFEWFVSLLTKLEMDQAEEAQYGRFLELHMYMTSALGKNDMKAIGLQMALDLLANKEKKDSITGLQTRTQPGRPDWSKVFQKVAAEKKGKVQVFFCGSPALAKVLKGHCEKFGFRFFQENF
Nox2, sequence (P04839 2-570): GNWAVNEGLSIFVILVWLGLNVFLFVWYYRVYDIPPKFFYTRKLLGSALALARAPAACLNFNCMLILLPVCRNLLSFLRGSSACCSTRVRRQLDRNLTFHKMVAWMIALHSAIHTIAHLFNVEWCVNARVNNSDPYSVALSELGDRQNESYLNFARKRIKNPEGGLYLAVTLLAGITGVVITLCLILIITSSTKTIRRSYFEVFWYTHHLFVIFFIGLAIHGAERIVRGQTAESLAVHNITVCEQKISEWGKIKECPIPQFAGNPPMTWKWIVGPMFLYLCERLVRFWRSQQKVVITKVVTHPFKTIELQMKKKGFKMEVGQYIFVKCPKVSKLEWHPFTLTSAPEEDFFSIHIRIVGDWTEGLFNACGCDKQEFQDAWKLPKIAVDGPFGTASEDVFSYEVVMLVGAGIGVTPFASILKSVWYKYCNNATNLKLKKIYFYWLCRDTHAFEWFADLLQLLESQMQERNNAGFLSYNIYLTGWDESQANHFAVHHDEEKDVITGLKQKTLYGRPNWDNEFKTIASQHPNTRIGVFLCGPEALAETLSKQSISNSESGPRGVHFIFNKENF
Nox2, sequence (P13498 2-195 partner): as the sequence (P13498 2-195 partner) above
xanthine oxidase, sequence (P80457 whole entry): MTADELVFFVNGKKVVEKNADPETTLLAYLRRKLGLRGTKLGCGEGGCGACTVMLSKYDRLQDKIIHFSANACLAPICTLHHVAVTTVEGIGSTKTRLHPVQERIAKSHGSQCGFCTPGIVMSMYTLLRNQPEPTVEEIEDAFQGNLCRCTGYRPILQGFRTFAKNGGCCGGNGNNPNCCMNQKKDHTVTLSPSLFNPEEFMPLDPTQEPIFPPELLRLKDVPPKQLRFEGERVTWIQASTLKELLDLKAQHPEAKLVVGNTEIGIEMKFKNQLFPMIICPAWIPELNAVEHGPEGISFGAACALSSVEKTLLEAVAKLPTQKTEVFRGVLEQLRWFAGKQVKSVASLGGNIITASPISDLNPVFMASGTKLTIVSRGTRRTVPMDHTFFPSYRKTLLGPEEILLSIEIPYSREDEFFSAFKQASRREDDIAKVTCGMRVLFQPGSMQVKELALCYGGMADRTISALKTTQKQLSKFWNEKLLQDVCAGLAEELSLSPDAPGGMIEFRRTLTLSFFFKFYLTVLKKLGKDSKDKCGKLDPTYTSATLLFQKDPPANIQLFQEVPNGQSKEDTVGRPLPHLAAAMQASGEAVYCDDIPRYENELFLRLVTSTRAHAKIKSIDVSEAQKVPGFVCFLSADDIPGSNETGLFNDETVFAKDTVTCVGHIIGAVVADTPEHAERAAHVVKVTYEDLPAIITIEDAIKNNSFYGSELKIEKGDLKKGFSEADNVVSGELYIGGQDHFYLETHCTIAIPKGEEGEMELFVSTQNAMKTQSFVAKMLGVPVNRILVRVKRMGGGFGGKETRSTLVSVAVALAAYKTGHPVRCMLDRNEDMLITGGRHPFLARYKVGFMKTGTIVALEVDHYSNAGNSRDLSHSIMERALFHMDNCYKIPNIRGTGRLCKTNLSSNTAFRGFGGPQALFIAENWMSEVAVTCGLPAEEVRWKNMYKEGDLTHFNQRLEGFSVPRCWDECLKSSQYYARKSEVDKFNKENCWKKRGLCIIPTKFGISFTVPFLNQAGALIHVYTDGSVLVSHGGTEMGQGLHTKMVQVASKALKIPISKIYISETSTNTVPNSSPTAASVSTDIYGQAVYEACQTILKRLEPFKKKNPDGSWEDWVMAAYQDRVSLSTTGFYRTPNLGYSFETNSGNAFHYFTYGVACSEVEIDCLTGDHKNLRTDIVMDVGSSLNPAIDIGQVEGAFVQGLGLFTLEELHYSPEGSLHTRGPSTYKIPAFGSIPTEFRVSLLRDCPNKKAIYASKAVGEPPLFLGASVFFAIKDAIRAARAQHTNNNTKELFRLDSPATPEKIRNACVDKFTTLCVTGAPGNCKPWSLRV
Nox1, sequence (Q9Y5S8 whole entry): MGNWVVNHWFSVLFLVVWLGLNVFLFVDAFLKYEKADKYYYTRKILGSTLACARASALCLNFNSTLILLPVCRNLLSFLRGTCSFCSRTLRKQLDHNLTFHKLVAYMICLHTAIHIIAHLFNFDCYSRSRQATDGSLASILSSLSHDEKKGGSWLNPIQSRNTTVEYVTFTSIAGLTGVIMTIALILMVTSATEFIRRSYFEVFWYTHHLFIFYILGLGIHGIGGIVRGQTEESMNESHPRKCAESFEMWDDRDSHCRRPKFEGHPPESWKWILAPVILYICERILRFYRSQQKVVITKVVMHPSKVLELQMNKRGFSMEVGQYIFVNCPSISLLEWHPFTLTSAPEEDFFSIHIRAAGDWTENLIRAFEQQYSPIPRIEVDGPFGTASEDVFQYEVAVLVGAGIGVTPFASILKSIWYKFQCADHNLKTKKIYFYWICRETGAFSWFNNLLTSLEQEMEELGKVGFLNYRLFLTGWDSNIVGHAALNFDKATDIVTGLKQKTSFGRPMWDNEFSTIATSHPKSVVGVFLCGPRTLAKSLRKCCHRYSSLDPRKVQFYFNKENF
Nox1, sequence (P13498 2-195 partner): as the sequence (P13498 2-195 partner) above

Consider `Cc1cc(C)c(S(=O)(=O)NCCc2ccccc2F)c(C)c1` [Example 2, N-[2-(2-fluorophenyl)ethyl]-2,4,6-trimethylbenzene-1-sulfonamide], for which the IC50 on hNox4 is 2200 nM. Further, the “IC50 Nox1” value at Nox1 is given as “—”. In addition, at Nox2, the “IC50 Nox2” value was “—”. The “IC50 Nox5” value at Nox5 is listed as “—”. On xanthine oxidase, the “IC50 XO” value is “—”. Further, in “DPPH redox assay”, the “IC50 DPPH” value is given as “—”.

Turning to `Cc1c2c(=O)n(-c3ccccc3Cl)[nH]c2cc(=O)n1Cc1ccccn1` [GKT136901, 2-(2-Chlorophenyl)-4-methyl-5-(pyridin-2-ylmethyl)-1H-pyrazolo[4,3-c]pyridine-3,6-dione, reference compound], the IC50 is 1600 nM at hNox4, 500 nM at Nox1 and 9000 nM on Nox2. Further, in the experiment “DPPH redox assay”, the “IC50 DPPH” value was “active”.

As to `O=S(=O)(NCCc1ccccc1F)c1c(Cl)cc(C2CC2)cc1Cl` [Example 25, 2,6-dichloro-4-cyclopropyl-N-[2-(2-fluorophenyl)ethyl]benzene-1-sulfonamide], the concentration for half-maximal inhibition (IC50) on hNox4 was 1100 nM. Besides, the “IC50 Nox1” value on Nox1 is recorded as “—”. In addition, the “IC50 Nox5” value at Nox5 is on record as “—”. Besides, the “IC50 XO” value at xanthine oxidase is given as “—”. In addition, in the experiment “DPPH redox assay”, the “IC50 DPPH” value is listed as “—”.

For the compound `Cc1ccccc1C(F)CNS(=O)(=O)c1c(Cl)cc(Br)cc1Cl` (single isomer, unassigned) [Example 35 (isomer 2), 4-bromo-2,6-dichloro-N-[2-fluoro-2-(2-methylphenyl)ethyl]benzene-1-sulfonamide], the IC50 at hNox4 amounted to 4900 nM. The “IC50 Nox1” value at Nox1 is reported as “—”. The “IC50 Nox2” value on Nox2 is reported as “—”. In addition, the “IC50 Nox5” value at Nox5 was “—”. On xanthine oxidase, the “IC50 XO” value is recorded as “—”. Further, the “IC50 DPPH” value in “DPPH redox assay” is recorded as “—”.

Turning to `CC(=O)c1ccc2c(c1)Nc1ccccc1S2` [ML171], in the experiment with Human islet cells, the “human islet cell death with cytokines” value is on record as “failed to reduce human islet cell death” and the “human islet cell death with high glucose+palmitate” value is reported as “failed to reduce human islet cell death”.

For `Cc1c(C)c(S(=O)(=O)NCCc2ccccc2Cl)c(C)c2c1OC(C)(C)C2` [Example 9, N-[2-(2-chlorophenyl)ethyl]-2,2,4,6,7-pentamethyl-2,3-dihydro-1-benzofuran-5-sulfonamide], on hNox4, the IC50 was 1600 nM. The “IC50 Nox1” value at Nox1 is listed as “—”. The “IC50 Nox2” value at Nox2 is “—”. Also, the “IC50 Nox5” value at Nox5 is reported as “—”. Moreover, the “IC50 XO” value on xanthine oxidase was “—”. For the same compound, the “IC50 DPPH” value in “DPPH redox assay” was “—”.

As to `O=S(=O)(NCCc1ccccc1Cl)c1c(Cl)cc(Br)cc1Cl` [Example 20, 4-bromo-2,6-dichloro-N-[2-(2-chlorophenyl)ethyl]benzene-1-sulfonamide], the IC50 at hNox4 was determined as 900 nM. In addition, the “IC50 Nox1” value at Nox1 is recorded as “—”. The “IC50 Nox5” value at Nox5 was “—”. In addition, the “IC50 XO” value at xanthine oxidase is “—”. Further, in “DPPH redox assay”, the “IC50 DPPH” value is “—”.

Take `Cc1cc(C)c(S(=O)(=O)NCCc2ccccc2Br)c(C)c1` [Example 7, N-[2-(2-bromophenyl)ethyl]-2,4,6-trimethylbenzene-1-sulfonamide]: the IC50 at hNox4 worked out at 270 nM. Moreover, the “IC50 Nox1” value on Nox1 is “—”. In addition, the “IC50 Nox2” value against Nox2 is listed as “—”. Also, the “IC50 Nox5” value at Nox5 is “—”. Moreover, at xanthine oxidase, the “IC50 XO” value was “—”.

With `Cc1ccccc1C(F)CNS(=O)(=O)c1c(Cl)cc(Br)cc1Cl` (single isomer, unassigned) [Example 35 (isomer 1), 4-bromo-2,6-dichloro-N-[2-fluoro-2-(2-methylphenyl)ethyl]benzene-1-sulfonamide], the IC50 on hNox4 was 1700 nM. Besides, the “IC50 Nox1” value on Nox1 is listed as “—”. Also, on Nox2, the “IC50 Nox2” value was “—”. Moreover, the “IC50 Nox5” value at Nox5 is on record as “—”. In addition, the “IC50 XO” value on xanthine oxidase is listed as “—”. In addition, the “IC50 DPPH” value in the experiment “DPPH redox assay” is recorded as “—”.

For `Cc1cc(C)c(S(=O)(=O)NCCc2ccccc2Cl)c(C)c1` [Example 6, N-[2-(2-chlorophenyl)ethyl]-2,4,6-trimethylbenzene-1-sulfonamide], the IC50 at hNox4 came out at 270 nM. Further, at Nox1, the “IC50 Nox1” value is “—”. Moreover, the “IC50 Nox2” value on Nox2 is listed as “—”. Further, the “IC50 Nox5” value on Nox5 is “—”. In addition, the “IC50 XO” value at xanthine oxidase was “—”. In addition, the “IC50 DPPH” value in the experiment “DPPH redox assay” was “—”.

As for `Cc1cc(C)c(S(=O)(=O)NCCc2ccccc2C)c(C)c1` [Example 14, 2,4,6-trimethyl-N-[2-(2-methylphenyl)ethyl]benzene-1-sulfonamide], the IC50 on hNox4 amounted to 90 nM. Moreover, the “IC50 Nox1” value on Nox1 is recorded as “—”. Moreover, the “IC50 Nox2” value on Nox2 was “—”. In addition, the “IC50 Nox5” value at Nox5 is “—”. For the same compound, on xanthine oxidase, the “IC50 XO” value was “—”. For the same compound, the “IC50 DPPH” value in the experiment “DPPH redox assay” is reported as “—”.

Consider `O=[N+]([O-])c1cccc(C2Nc3ccc([N+](=O)[O-])cc3C3C=CCC32)c1` (stereo not shown) [Phox-I2], for which, in the experiment with Human islet cells, the “human islet cell death with cytokines” value is listed as “failed to protect human islets against cytokines” and the “human islet cell death with high glucose+palmitate” value is “partially protected against high glucose+palmitate”.

In the case of `O=S(=O)(NCCc1ccccc1Cl)c1c(Cl)cc(C(F)(F)F)cc1Cl` [Example 27, 2,6-dichloro-N-[2-(2-chlorophenyl)ethyl]-4-(trifluoromethyl)benzene-1-sulfonamide], the IC50 at hNox4 stood at 1600 nM. For the same compound, at Nox1, the “IC50 Nox1” value was “—”. The “IC50 Nox5” value at Nox5 was “—”. In addition, the “IC50 XO” value on xanthine oxidase is on record as “—”. Further, the “IC50 DPPH” value in “DPPH redox assay” was “—”.

Broadly, the IC50 is the point on the concentration scale where inhibition reaches its midpoint.
